Assay results reported in ChEMBL document CHEMBL1159275, “Mycalolides D and E, new cytotoxic macrolides from a collection of the stony coral Tubastrea faulkneri” (1995).

Assay: Cytotoxicity against human NCI60 cells
Assay type: functional
Conditions: read-out: LC50 (the source's name)

Structure (SMILES) | CC50 [nM]
COCC(OC)C(=O)OC(CCC(C)C(CC1OC(=O)CC(O)C/C=C/C(=O)CC(C)C(=O)NC(=O)c2coc(n2)-c2coc(n2)/C=C/CC(OC)C1C)OC)C(C)C(OC(C)=O)C(C)/C=C/N(C)C=O (configuration not stated) [MYCALOLIDE D] | 600
CO[C@H]1C/C=C/c2nc(co2)-c2nc(co2)-c2nc(co2)[C@@H](OC)[C@@H](C)C(=O)/C=C/C[C@H](O)CC(=O)O[C@@H](C[C@H](OC)[C@@H](C)CC[C@@H](OC(=O)[C@@H](C)OC)[C@H](C)[C@H](OC(C)=O)[C@H](C)/C=C/N(C)C=O)[C@@H]1C [MYCALOLIDE C] | 2500
